Results taken from ChEMBL document CHEMBL3797126, “Oxaspirol B with p97 Inhibitory Activity and Other Oxaspirols from Lecythophora sp. FL1375 and FL1031, Endolichenic Fungi Inhabiting Parmotrema tinctorum and Cladonia evansii” (J Nat Prod, 2016).
Blank lines part the entries; values can stand above or below the compound they belong to. Active and inactive are the calls of the source. The rule behind the calls is not given here.

What was measured:
[1] = biological target: T1, Transitional endoplasmic reticulum ATPase (Homo sapiens, UniProt P55072); experiment: Inhibition of p97 (unknown origin) ATPase activity up to 200 uM after 10 mins by malachite green dye based visible spectrophotometry
Target sequence in this assay (P55072 2-806 limits assumed): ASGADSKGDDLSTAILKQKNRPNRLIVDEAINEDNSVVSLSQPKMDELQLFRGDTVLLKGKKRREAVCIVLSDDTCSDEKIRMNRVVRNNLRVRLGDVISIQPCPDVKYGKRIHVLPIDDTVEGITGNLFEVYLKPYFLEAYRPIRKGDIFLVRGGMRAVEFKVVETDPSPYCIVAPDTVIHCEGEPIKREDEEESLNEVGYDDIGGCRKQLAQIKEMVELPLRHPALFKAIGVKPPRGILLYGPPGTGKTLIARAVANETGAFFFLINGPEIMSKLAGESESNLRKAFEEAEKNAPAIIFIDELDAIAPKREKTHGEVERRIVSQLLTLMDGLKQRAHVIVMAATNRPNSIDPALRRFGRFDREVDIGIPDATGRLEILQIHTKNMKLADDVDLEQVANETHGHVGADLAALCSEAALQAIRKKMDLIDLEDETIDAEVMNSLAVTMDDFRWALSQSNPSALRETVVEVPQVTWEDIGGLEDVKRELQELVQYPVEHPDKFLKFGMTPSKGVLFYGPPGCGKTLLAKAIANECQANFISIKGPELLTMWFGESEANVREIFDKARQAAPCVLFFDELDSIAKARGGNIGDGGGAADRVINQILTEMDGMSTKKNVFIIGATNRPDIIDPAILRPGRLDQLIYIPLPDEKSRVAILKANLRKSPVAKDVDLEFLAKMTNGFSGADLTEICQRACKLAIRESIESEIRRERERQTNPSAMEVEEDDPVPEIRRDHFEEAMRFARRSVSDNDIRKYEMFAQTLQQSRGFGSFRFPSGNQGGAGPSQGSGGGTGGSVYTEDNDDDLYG

[2] = biological target: T1, Transitional endoplasmic reticulum ATPase; experiment: Inhibition of p97 (unknown origin) ATPase activity after 10 mins by malachite green dye based visible spectrophotometry
Target sequence in this assay (P55072 whole entry): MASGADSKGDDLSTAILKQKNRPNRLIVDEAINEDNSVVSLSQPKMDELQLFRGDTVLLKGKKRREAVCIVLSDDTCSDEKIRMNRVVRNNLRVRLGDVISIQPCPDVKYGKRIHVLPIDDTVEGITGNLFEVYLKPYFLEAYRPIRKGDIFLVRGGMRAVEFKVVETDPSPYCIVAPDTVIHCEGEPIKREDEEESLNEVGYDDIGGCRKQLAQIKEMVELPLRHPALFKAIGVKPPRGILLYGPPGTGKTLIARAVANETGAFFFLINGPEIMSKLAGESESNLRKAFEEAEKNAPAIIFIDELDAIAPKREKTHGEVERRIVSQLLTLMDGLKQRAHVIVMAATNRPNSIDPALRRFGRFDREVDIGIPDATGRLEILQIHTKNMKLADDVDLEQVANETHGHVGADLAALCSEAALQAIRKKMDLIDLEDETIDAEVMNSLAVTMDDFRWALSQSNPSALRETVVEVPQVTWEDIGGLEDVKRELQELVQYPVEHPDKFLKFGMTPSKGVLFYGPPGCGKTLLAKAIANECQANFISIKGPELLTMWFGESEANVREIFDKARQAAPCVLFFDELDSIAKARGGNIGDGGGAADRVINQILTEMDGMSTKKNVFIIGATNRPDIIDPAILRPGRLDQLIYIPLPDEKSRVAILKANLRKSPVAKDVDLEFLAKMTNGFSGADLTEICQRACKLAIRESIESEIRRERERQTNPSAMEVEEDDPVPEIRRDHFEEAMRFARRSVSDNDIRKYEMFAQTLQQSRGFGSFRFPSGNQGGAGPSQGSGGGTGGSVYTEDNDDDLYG

[3] = biological target: Transitional endoplasmic reticulum ATPase (Homo sapiens, UniProt P55072, C209A); experiment: Inhibition of p97-C209A mutant (unknown origin) after 10 mins by malachite green dye based visible spectrophotometry
[4] = biological target: Transitional endoplasmic reticulum ATPase (Homo sapiens, UniProt P55072, C522A); experiment: Inhibition of p97-C522A mutant (unknown origin) after 10 mins by malachite green dye based visible spectrophotometry
[5] = biological target: ATP-dependent clpX-like chaperone, mitochondrial (Homo sapiens) (UniProt O76031); experiment: Inhibition of type 1 AAA+ chaperone ClpX (unknown origin) up to 200 uM
[6] = biological target: Vesicle-fusing ATPase (Homo sapiens) (UniProt P46459); experiment: Inhibition of type 2 AAA+ N-ethylmaleimide sensitive factor (unknown origin) up to 200 uM
[7] = biological target: T1, Transitional endoplasmic reticulum ATPase; experiment: Inhibition of p97 (unknown origin) ATPase in HEK293 cells expressing UbG76VGFP fusion protein assessed as level of UbG76VGFP rescued by measuring GFP fluorescence loss by flow cytometry; assay type: cell-based
Target sequence in this assay (P55072 2-806 limits assumed): as the sequence (P55072 2-806 limits assumed) above

[8] = biological target: T1, Transitional endoplasmic reticulum ATPase; experiment: Inhibition of p97 (unknown origin) ATPase in HEK293 cells expressing T cell receptor alpha-GFP assessed as level of T cell receptor alpha-GFP rescued by flow cytometry; assay type: cell-based
Target sequence in this assay (P55072 2-806 limits assumed): as above

[9] = biological target: T1, Transitional endoplasmic reticulum ATPase; conditions: 200 uM
Target sequence in this assay (P55072 2-806 limits assumed): as above
Description: Inhibition of p97 cysteine-less mutant (unknown origin) at 200 uM after 10 mins by malachite green dye based visible spectrophotometry

[10] = biological target: T1, Transitional endoplasmic reticulum ATPase; conditions: 100 uM
Target sequence in this assay (P55072 2-806 limits assumed): as above
Description: Reversible inhibition of p97 (unknown origin) ATPase activity at 100 uM after prolonged incubation of 6 hrs followed by dialysis for 2 hrs by malachite green dye based visible spectrophotometry

[11] = biological target: chaperonin GroEL (Escherichia coli) (UniProt P0A6F5); experiment: Inhibition of Escherichia coli chaperonin GroEL up to 200 uM
[12] = biological target: T1, Transitional endoplasmic reticulum ATPase; experiment: Reversible inhibition of p97 (unknown origin) ATPase activity after prolonged incubation followed by dialysis
Target sequence in this assay (P55072 2-806 limits assumed): as above

Sequence of Transitional endoplasmic reticulum ATPase (Homo sapiens, UniProt P55072, C209A) (P55072 2-806 C209A limits assumed): as the sequence (P55072 2-806 limits assumed) above, with C208A counted along it
Sequence of Vesicle-fusing ATPase (Homo sapiens) (P46459 whole entry, the tested form may be a part): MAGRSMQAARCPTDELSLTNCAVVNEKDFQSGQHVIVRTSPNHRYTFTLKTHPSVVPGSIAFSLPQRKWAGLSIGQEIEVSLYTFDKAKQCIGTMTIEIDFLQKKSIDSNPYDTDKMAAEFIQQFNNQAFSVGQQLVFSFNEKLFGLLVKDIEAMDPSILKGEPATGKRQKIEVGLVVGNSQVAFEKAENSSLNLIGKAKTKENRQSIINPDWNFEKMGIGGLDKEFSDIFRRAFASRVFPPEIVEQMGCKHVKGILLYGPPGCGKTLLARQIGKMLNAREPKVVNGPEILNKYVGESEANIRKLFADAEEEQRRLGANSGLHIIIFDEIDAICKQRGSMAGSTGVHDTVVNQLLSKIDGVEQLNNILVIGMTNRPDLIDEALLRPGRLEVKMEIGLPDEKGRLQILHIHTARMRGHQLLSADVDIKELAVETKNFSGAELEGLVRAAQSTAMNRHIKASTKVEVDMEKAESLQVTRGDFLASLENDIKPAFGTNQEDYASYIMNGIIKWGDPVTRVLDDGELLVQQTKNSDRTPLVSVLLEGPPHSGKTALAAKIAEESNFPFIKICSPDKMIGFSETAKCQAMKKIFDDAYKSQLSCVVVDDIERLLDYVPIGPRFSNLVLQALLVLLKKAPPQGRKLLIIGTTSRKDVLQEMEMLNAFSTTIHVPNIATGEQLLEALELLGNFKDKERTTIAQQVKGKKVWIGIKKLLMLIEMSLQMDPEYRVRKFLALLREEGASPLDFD
Sequence of ATP-dependent clpX-like chaperone, mitochondrial (Homo sapiens) (O76031 whole entry): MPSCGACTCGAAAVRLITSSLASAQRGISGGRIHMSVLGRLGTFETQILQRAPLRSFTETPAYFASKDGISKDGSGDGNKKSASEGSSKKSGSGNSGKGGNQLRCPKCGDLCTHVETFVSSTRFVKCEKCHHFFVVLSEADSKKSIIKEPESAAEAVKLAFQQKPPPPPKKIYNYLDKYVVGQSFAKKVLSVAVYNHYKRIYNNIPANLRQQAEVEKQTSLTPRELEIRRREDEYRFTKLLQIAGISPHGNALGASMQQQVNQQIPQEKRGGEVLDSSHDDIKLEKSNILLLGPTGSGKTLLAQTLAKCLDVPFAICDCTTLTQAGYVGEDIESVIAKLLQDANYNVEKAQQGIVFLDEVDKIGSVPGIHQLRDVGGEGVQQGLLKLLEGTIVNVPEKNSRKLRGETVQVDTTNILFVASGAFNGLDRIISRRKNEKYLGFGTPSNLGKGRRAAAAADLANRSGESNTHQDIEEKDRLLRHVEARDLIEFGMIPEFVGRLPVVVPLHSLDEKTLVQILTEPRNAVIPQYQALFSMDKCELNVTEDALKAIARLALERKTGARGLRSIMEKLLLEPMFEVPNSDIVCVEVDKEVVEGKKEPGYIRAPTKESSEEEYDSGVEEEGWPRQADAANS
Sequence of chaperonin GroEL (Escherichia coli) (P0A6F5 whole entry, looked up): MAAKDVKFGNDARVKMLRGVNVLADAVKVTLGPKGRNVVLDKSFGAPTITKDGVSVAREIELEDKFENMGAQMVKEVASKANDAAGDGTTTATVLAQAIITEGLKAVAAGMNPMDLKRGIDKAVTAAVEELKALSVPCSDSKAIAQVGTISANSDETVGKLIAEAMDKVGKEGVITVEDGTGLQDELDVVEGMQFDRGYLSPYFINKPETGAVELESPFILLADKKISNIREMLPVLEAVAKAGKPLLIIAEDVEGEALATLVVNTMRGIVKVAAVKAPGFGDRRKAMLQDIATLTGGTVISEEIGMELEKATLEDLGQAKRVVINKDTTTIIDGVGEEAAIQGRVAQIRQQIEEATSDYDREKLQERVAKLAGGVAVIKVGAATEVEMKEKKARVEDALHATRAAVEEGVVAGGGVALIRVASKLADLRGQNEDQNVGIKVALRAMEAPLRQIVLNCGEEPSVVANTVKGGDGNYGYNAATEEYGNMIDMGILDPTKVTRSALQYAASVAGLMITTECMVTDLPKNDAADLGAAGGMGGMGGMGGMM
Sequence of Transitional endoplasmic reticulum ATPase (Homo sapiens, UniProt P55072, C522A) (P55072 2-806 C522A limits assumed): as the sequence (P55072 2-806 limits assumed) above, with C521A counted along it

inhibition [1]: inactive
Structure (SMILES): C=C1OC(=O)[C@]2(C1=O)[C@H](/C=C/C=C/CCC)C=C[C@@H](OC(C)=O)[C@@H]2OC(C)=O

Structure (SMILES): C=C1OC(=O)C2(C1=O)[C@H](/C=C/C=C/CCC)C=C[C@@H](O)[C@@H]2O (mixture of isomers)
IC50 [2]: 31.2 µM | IC50 [3]: 18 µM | IC50 [4]: 26.3 µM | inhibition [5]: inactive | inhibition [6]: inactive | inhibition [7]: Dose-dependent effect | inhibition [8]: Dose-dependent effect | inhibition [9]: inactive | inhibition [10]: Active | inhibition [11]: inactive

inhibition [12]: inactive
Structure (SMILES): C[C@H]1CCC/C=C/C(=O)c2c(O)cc(O)cc2CC(=O)O1

inhibition [1]: inactive
Structure (SMILES): C=C1OC(=O)[C@@]2(C1=O)[C@H](/C=C/C=C/CCC)C=C[C@@H](OC(C)=O)[C@@H]2OC(C)=O
